# Results as given in ChEMBL document CHEMBL3616448, “N-Hydroxyimides and hydroxypyrimidinones as inhibitors of the DNA repair complex ERCC1-XPF” (Bioorg Med Chem Lett, 2015).
# Activity calls are given as the source filed them. No cut-off for these calls is given here.
# Legend:
# [1] = molecular target: T1, Deoxyribonuclease-1 (Homo sapiens, UniProt P24855); experiment: Inhibition of DNAse1 (unknown origin)
# T1 sequence (P24855 whole entry): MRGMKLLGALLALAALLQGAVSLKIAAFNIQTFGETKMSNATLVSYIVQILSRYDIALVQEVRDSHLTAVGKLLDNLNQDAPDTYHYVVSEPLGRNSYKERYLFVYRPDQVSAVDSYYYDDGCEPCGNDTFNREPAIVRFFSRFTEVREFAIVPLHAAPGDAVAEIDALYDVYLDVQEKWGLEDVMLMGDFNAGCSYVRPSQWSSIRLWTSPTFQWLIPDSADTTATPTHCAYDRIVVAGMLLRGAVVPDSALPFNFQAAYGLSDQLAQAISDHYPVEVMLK
# [2] = molecular target: T2, DNA excision repair protein ERCC-1/DNA repair endonuclease XPF (Homo sapiens, UniProt P07992+Q92889); experiment: Inhibition of ERCC1-XPF (unknown origin) by high-throughput fluorescence based in-vitro endonuclease assay; format: protein-complex assay
# T2 sequence (P07992 whole entry): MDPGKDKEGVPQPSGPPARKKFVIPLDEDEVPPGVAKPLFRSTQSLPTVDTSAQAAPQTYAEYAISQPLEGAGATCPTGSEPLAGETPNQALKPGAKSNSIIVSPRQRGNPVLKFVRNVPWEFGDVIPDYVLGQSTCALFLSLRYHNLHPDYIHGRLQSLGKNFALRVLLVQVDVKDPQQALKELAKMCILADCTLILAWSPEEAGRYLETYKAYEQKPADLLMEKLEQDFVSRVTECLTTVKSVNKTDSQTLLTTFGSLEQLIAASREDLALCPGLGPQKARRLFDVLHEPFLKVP
# T2 sequence (Q92889 whole entry): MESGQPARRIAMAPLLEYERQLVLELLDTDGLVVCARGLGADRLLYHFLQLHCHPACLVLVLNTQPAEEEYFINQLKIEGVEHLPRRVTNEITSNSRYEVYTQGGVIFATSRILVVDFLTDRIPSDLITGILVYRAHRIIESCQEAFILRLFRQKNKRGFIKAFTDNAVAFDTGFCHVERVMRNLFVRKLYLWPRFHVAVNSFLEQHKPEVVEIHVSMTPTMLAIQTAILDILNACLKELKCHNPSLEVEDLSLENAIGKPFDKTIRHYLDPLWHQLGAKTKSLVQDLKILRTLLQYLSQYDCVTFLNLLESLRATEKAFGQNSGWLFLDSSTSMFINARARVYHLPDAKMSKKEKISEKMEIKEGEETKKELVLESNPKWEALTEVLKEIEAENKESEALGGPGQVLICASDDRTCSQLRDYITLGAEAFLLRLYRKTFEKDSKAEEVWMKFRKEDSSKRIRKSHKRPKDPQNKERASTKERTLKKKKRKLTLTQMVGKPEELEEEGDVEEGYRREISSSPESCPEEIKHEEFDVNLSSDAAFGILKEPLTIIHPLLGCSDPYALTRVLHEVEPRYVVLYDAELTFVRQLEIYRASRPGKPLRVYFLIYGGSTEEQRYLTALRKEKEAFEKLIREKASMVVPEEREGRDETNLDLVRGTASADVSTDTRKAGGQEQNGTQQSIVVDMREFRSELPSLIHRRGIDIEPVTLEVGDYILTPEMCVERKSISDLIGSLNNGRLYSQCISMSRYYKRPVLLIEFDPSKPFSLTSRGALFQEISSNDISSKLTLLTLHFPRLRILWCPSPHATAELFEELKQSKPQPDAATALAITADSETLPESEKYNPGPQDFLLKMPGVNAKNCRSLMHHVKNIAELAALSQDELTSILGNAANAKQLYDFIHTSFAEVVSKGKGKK
# [3] = molecular target: Flap endonuclease 1 (Homo sapiens, UniProt P39748); experiment: Inhibition of FEN1 (unknown origin)
# [4] = Apparent permeability by PAMPA method; format: physicochemical
# [5] = Lipophilicity, log D of the compound; format: physicochemical; details: octanol/water
# [6] = Half life in mouse liver microsomes; format: ADME
# [7] = Half life in human liver microsomes; format: ADME
# [8] = system: HepG2; experiment: Cytotoxicity against human HepG2 cells; format: cell-based
# [9] = molecular target: T3, DNA excision repair protein ERCC-1/DNA repair endonuclease XPF (Homo sapiens) (UniProt P07992+Q92889); experiment: Binding affinity to ERCC1-XPF (unknown origin) assessed as melting temperature by thermal shift assay; format: protein-complex assay
# [10] = molecular target: T3, DNA excision repair protein ERCC-1/DNA repair endonuclease XPF (Homo sapiens); experiment: Inhibition of ERCC1-XPF in human A375 cells assessed as induction of delay in DNA repair by measuring cumulative frequency of cells up to 10 uM pre-incubated for 1 hr before cisplatin exposure for 1 hr by immunohistochemistry based gammaH2AX foci assay; format: cell-based; details: A-375
# [11] = molecular target: T3, DNA excision repair protein ERCC-1/DNA repair endonuclease XPF (Homo sapiens); experiment: Inhibition of ERCC1-XPF in human A375 cells assessed as reduction in direct nucleotide excision repair of UV-damaged pEGFP plasmid up to 10 uM incubated for 24 hrs by recombinant GFP reporter assay; format: cell-based; details: A-375
# [12] = system: A-375; experiment: Cytotoxicity against human A375 cells assessed as reduction in cell number at 0.1 to 3 uM incubated for 5 days; format: cell-based; details: a-375, 120 h
# [13] = molecular target: T2, DNA excision repair protein ERCC-1/DNA repair endonuclease XPF; experiment: Binding affinity to ERCC1-XPF (unknown origin) by SPR assay; format: protein-complex assay
# [14] = molecular target: T3, DNA excision repair protein ERCC-1/DNA repair endonuclease XPF (Homo sapiens); experiment: Inhibition of ERCC1-XPF in human A375 cells assessed as potentiation of cisplatin-induced cytotoxicity at 0.1 to 3 uM incubated for 5 days; format: cell-based; details: A-375
# Sequence of Flap endonuclease 1 (P39748 whole entry): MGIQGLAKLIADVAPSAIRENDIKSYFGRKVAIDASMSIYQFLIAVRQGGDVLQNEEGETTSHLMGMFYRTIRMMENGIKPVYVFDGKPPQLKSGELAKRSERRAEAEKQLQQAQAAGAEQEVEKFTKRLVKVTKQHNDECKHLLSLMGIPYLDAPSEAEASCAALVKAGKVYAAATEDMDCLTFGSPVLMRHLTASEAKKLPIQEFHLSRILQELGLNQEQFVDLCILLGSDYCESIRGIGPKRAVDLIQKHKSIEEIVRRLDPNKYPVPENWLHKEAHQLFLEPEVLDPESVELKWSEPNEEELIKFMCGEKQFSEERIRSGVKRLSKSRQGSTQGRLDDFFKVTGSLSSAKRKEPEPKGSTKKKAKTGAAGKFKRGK
Structure (SMILES),IC50 [1] [µM],IC50 [2] [µM],IC50 [3] [µM],further results
O=C(NCc1ccc(F)cc1)c1nc(-c2cccs2)nc(O)c1O,> 100,4.2,2.1,–
O=C1c2cccc3cccc(c23)C(=O)N1O,–,30,0.3,–
O=C(NCCN1CCOCC1)c1nc(-c2cccs2)[nH]c(=O)c1O,58.9,1,4.1,–
O=C1c2cccc3c(Cl)ccc(c23)C(=O)N1O,–,12,0.7,–
CC(C)CCNC(=O)c1nc(-c2ccc(CN(C)C)cc2)[nH]c(=O)c1O,–,1.7,71.3,–
NC(=O)c1nc(-c2cccs2)nc(O)c1O,> 100,1,23.3,Papp [4]: 0.7 ×10⁻⁶ cm/s; logD [5]: -0.4; half-life [6]: 2.5 h; half-life [7]: 2.32 h; Activity [8]: > 10 µM
CC(C)CCNC(=O)c1nc(C2CCCCN2)[nH]c(=O)c1O (configuration not stated),–,6.3,> 100,–
CC(=O)NCCNC(=O)c1nc(-c2cccs2)[nH]c(=O)c1O,62.6,0.8,5,–
Cn1c(-c2cccs2)nc(C(=O)O)c(O)c1=O,> 100,48.8,88.9,–
COc1nc(-c2cccs2)nc(C(=O)O)c1O,–,> 100,–,–
O=C(O)c1nc(-c2ccccc2)nc(O)c1O,> 100,3.9,16.4,–
COC(=O)c1nc(-c2cccs2)nc(O)c1O,> 100,27.3,10.1,–
CCCNC(=O)c1nc(-c2cccs2)[nH]c(=O)c1O,> 100,2.7,4.2,–
O=C(Nc1cccnc1)c1nc(-c2cccs2)[nH]c(=O)c1O,> 100,0.7,8.6,–
CC(C)CCNC(=O)c1nc(C2CCCN(C)C2)[nH]c(=O)c1O (configuration not stated),–,25.3,> 100,–
CC(C)CCNC(=O)c1nc(-c2ccc(CN3CCOCC3)cc2)[nH]c(=O)c1O,–,0.8,38.1,–
O=C(NCCO)c1nc(-c2cccs2)[nH]c(=O)c1O,> 100,0.7,4,–
CC(C)CCNC(=O)c1nc(-c2cccs2)[nH]c(=O)c1O,–,0.5,3.5,–
O=C(c1nc(-c2cccs2)[nH]c(=O)c1O)N1CCCC1,–,4.6,13.7,–
CC(C)CCNC(=O)c1nc(C2CCCCN2C)[nH]c(=O)c1O (configuration not stated),–,8.4,> 100,–
CC(C)CCNC(=O)c1nc(C2CCN(C)CC2)[nH]c(=O)c1O,–,6.9,> 100,–
O=C(Nc1ccc(F)cc1)c1nc(-c2cccs2)[nH]c(=O)c1O,–,0.8,10.5,–
O=c1[nH]c2cc(N3CCCC3)ccc2c(=O)n1O,27.9,9.1,1.1,–
CCC(C)NC(=O)c1nc(-c2cccs2)[nH]c(=O)c1O (configuration not stated),> 100,0.6,1.3,Papp [4]: 9.7 ×10⁻⁶ cm/s; logD [5]: 2.1; half-life [6]: > 6.67 h; half-life [7]: > 6.67 h; Activity [8]: > 10 µM
CNC(=O)c1nc(-c2cccs2)[nH]c(=O)c1O,67.6,0.6,12,ΔTm [9]: 4 °C; inhibition [10]: inactive; Papp [4]: 3.1 ×10⁻⁶ cm/s; inhibition [11]: inactive; logD [5]: 0.5; half-life [6]: > 6.67 h; Activity [12]: Non-toxic; half-life [7]: 3.02 h; Kd [13]: 4 µM; inhibition [14]: inactive; Activity [8]: > 10 µM
O=C(O)c1nc(-c2cccs2)nc(O)c1O,> 100,2.9,10.4,–

# Continued, in another order:
IC50 [1] [µM],IC50 [2] [µM],IC50 [3] [µM],Structure (SMILES),further results
> 100,80.4,0.68,O=c1c2ccsc2n(Cc2ccccc2)c(=O)n1O,–
> 100,96.2,2.1,Cn1c(=O)n(O)c(=O)c2ccccc21,–
> 100,1.8,0.003,O=c1[nH]c2c(-c3ccccc3)csc2c(=O)n1O,–
87,6.6,2,CC(=O)Nc1ccc2[nH]c(=O)n(O)c(=O)c2c1,–
30.2,3.9,0.23,O=c1[nH]c2cc(Nc3ccccc3)ccc2c(=O)n1O,–
> 100,6.4,2.1,CC(=O)Nc1ccc2c(=O)n(O)c(=O)[nH]c2c1,–
> 100,1.5,0.057,Cc1ccc(-c2coc3c(=O)n(O)c(=O)[nH]c23)cc1,–
> 100,18.1,0.3,O=c1[nH]c2ccccc2c(=O)n1O,–
> 100,3.9,0.009,O=c1[nH]c2sccc2c(=O)n1O,–
> 100,16.4,53.4,COC(=O)c1nc(-c2ccccc2)[nH]c(=O)c1O,–
> 100,1.5,0.63,O=c1cc(-c2ccccc2)[nH]c(=O)n1O,–
> 100,6.1,0.038,CC(=O)Nc1cccc2c(=O)n(O)c(=O)[nH]c12,–
